Reference: patent US11311538B2, “Compositions and methods for targeting cancers” (YALE UNIVERSITY, priority 2018, dated 2022)

Columns and labels:
[1] = system: shSDHB-expressing HEK293FT tumor xenografts; experiment: Tumor growth delay assay, shSDHB HEK293FT xenografts; type: in vivo, mouse
Text: In vivo efficacy studies: HEK293FT xenografts. Female athymic nu/nu mice (Hsd:Athymic Nude-Foxnlnu, Envigo) were used for all in vivo xenograft studies. Mice were quarantined for at least 1 week before experimental manipulation. Tumors were formed using shRNA-expressing versions of the tumorigenic human embryonic kidney cell-derived line, HEK293FT. HEK293FT is a subline of HEK293 cells that has been transformed by expression of SV40 Large T-antigen. […], or shCTRL (non-targeted control) expressing HEK293FT cells were implanted subcutaneously (5×10^6 cells in 0.1 cc PBS) in the right flank of nude mice. Two efficacy studies were conducted. In one, mice were randomized into treatment and non-treated groups (10 mice/group) at day 3, with treatment initiation 4 days post implant. In a second independent in vivo efficacy study, mice were injected as above with 10 mice per group, and treatment was started only once the tumor volumes reached […]. For both studies, mice were visually observed daily and tumors were measured three times per week by calipers to determine tumor volume using the formula: Volume=L×W×W×0.532. Mice were fed with a grain based rodent diet containing Doxycycline at 200 mg/kg (Bioserv, Catalog #S3888). BMN-673 was solubilized in DMSO and diluted with PBS containing 10% dimethylacetamide (Sigma-Aldrich) and 6% Solutol (Sigma). BMN-673 (0.5 mg/kg, 0.2 cc), or vehicle (0.2 cc) was administered by oral gavage once daily for the duration of the experiment. Mean (geometric) tumor volume (mm^3) was plotted over time to monitor tumor growth. P-values were determined by ANOVA with repeated measures. In vivo efficacy studies: UOK 262 xenografts. Female athymic nu/nu mice (Hsd:Athymic Nude-Foxnlnu, Envigo) were used for all in vivo xenograft studies. Mice were quarantined for at least 1 week before experimental manipulation. UOK 262 cells were implanted subcutaneously using 5×10^6 cells in 0.1 cc PBS mixed with 0.1 cc of Corning Matrigel Matrix (Cat. No. 354234) per animal. Mice were randomized at day 3 day into two groups (n=10/group). […]

poly-ADP-ribose (PAR) = experiment: Poly-ADP-Ribose ELISA in xenograft tumors; type: in vivo, mouse; conditions: 24 h post single dose (FIG. 4K)
Procedure: Tumors developed with mice on a rodent diet including doxycycline just as in the in vivo efficacy studies. Once tumors were at 80 mm^3 mice were gavaged with BMN-673 at 1 or 10 mg/kg or vehicle. Tumors were collected 24 hours later for and frozen at −80° C. The concentrations of BMN-673 in tumor samples were determined using liquid chromatography with tandem mass spectrometry (LC-MS/MS). In brief, an aliquot (30 μL) tumor homogenate was protein precipitated with volumes of methanol, and 5 μL of supernatant was injected into the LC-MS/MS system. LC-MS/MS analyses were performed on a Waters LC-MS/MS system consisting a Waters AQUITY UPLC system coupled with a TQ-XS triple quadrupole mass spectrometer (Milford, Mass., USA). […] BMN673 was monitored using the positive electrospray ionization mode at the most sensitive and specific mass transition, m/z 381.0>228.8. The linear calibration curve was established at BMN673 concentration range of 5-5000 nM in mouse serum. The precision and accuracy of quality control samples were within generally acceptable criteria for bioanalytical methods. Poly-ADP-Ribose ELISA. Poly-ADP-Ribose ELISA was performed per manufacturer's protocol using the PARP in vivo Pharmacodynamic Assay II Kit (Trevigen). 2 μg of protein input was used per replicate and luminescence reading were converted to pg PAR/μg protein using a standard curve. Statistics and Reproducibility. […]

UOK 262 = experiment: Clonogenic survival assay in cell lines of renal origin; type: cell-based, human; conditions: FIG. 4C (BMN-673), FIG. 8J (mitomycin C)
HEK293FT and YUNK1 cells = experiment: Clonogenic survival assay, PARP inhibitors, knockdown or metabolite-treated cells; type: cell-based, human; conditions: knockdown of SDHB and FH or exogenous dimethyl-fumarate or succinate (FIGS. 4A-4B, 8E-8I)

Cn1ncnc1[C@H]1c2n[nH]c(=O)c3cc(F)cc(c23)N[C@@H]1c1ccc(F)cc1 [BMN-673, BMN-673 (Talazoparib)]
tumor growth vs vehicle, SDH-deficient tumors ([1]; treatment after tumors reached 95-150 mm^3, 0.5 mg/kg oral gavage once daily (FIG. 4G)): inhibited the growth
tumor growth vs vehicle, shSDHB tumors ([1]; treatment beginning four days after implantation, 0.5 mg/kg oral gavage once daily (FIG. 4D)): robust suppression of tumor growth
growth of SDHB-deficient tumors ([1]; two separate sets of in vivo efficacy studies, 0.5 mg/kg oral gavage once daily): significantly inhibited the growth
PAR levels by ELISA, SDHB knockdown vs shCTRL tumors (poly-ADP-ribose (PAR)): reduced to the same extent
sensitivity of UOK 262 relative to FH-proficient cell lines of renal origin, clonogenic survival (UOK 262): markedly more sensitive
sensitivity to the PARP inhibitor, clonogenic survival (HEK293FT and YUNK1 cells): dramatic sensitivity
